These results are taken from paper PMC3320615, “β-Microseminoprotein Endows Post Coital Seminal Plasma with Potent Candidacidal Activity by a Calcium- and pH-Dependent Mechanism” (PLoS Pathogens, 2012).

Experiment [1] in a line: Liposome leakage (carboxyfluorescein release). In kind it is biochemical. Conditions: pH 6.0, % ± SD of leakage with Triton X-100, CF fluorescence 520 nm, 37°C, at least triplicate, DOPC/cholesterol liposomes. The procedure: (§1) Dry lipid films were prepared by dissolving dioleoylphosphatidylcholine (1,2-dioleoyl-sn-Glycero-3-phoshocholine, >99% purity, Avanti Polar Lipids, Alabaster, AL) (60 mol%) (DOPC) and either ergosterol or cholesterol (both >99% purity, Sigma) (40 mol%) in chlorofom, and then removing the solvent by evaporation under vacuum overnight. Subsequently, buffer (10 mM Tris, pH 7.4) was added together with 0.1 M carboxyfluorescein (CF) (Sigma, St Louis, MO). After hydration, the lipid mixture was subjected to eight freeze-thaw cycles consisting of freezing in liquid nitrogen and heating to 60°C. Unilamellar liposomes of about Ø140 nm were generated by multiple extrusions through polycarbonate filters (pore size 100 nm) mounted in a LipoFastminiextruder (Avestin, Ottawa, Canada) at 22°C. Untrapped CF was then removed by two gel filtrations (Sephadex G-50) at 22°C, with Tris buffer as eluent. CF release was determined by monitoring the emitted fluorescence at 520 nm from liposome dispersions (10 mM lipid in 10 mM Tris). An absolute leakage scale was obtained by disrupting the liposomes at the end of the experiment through addition of 0.8 mM Triton X100 (Sigma, St Louis, MO), causing 100% release and dequenching of CF. Although calcein is frequently used for pH-dependent leakage studies, the high charge of this dye has been noted to influence its leakage behavior in the presence of highly cationic peptides. Instead, therefore, CF was used as a leakage marker at both pH 6.0 and 7.4, avoiding pH-dependent fluorescence effects through neutralization prior to probing the limiting leakage in case of pH 6.0 leakage. Throughout, a SPEX-fluorolog 1650 0.22-m double spectrometer (SPEX Industries, Edison, NJ) was used for the liposome leakage assay. Measurements were performed in at least triplicate at 37°C.

Experiment [2] can be described thus: Liposome leakage (carboxyfluorescein release). Conditions: % ± SD of leakage with Triton X-100, CF fluorescence 520 nm, 37°C, at least triplicate. The experiment is classed as biochemical. The procedure: as §1, with “Subsequently,” for “Dry lipid films were prepared by dissolving dioleoylphosphatidylcholine (1,2-dioleoyl-sn-Glycero-3-phoshocholine, >99% purity, Avanti Polar Lipids, Alabaster, AL) (60 mol%) (DOPC) and either ergosterol or cholesterol (both >99% purity, Sigma) (40 mol%) in chlorofom, and then removing the solvent by evaporation under vacuum overnight. Subsequently,”, “LipoFastminiextruder” left out

The mark [3] stands for this setting: pH 6.0, +EDTA, DOPC/ergosterol liposomes.
[4] abbreviates: pH 6.0, without EDTA, DOPC/ergosterol liposomes.

In the case of “RIFKKEDCKYI [MSP66–76, eleven residues at the very tip of the loop (residue 66–76)]”, the Liposome leakage in experiment [1] (+EDTA) is recorded as 0%; in experiment [1] (without EDTA) it was 0%; in experiment [2] (setting [3]), 41±9%; in experiment [2] (setting [4]), 31±6%; in experiment [2] (pH 7.4, +EDTA), 16±7%; in experiment [2] (pH 7.4, without EDTA), 29±6%.

B1: β-microseminoprotein (natural protein, human, UniProt P08118 21-114, looked up)
chain: SCYFIPNEGVPGDSTRKCMDLKGNKHPINSEWQTDNCETCTCYETEISCCTLVSTPVGYDKDNCQRIFKKEDCKYIVVEKKDPKKTCSVSEWII
notes: human β-microseminoprotein (MSP, PSP94), native protein purified from seminal plasma; also called MSP; PSP94
In the case of B1, the Liposome leakage in experiment [1] (+EDTA) was 4±2%; in experiment [1] (without EDTA), 0%; in experiment [2] (setting [3]) it was 53±5%; in experiment [2] (setting [4]) it was 36±8%; in experiment [2] (pH 7.4, +EDTA), 20±6%; in experiment [2] (pH 7.4, without EDTA), 20±5%.
